This assay concerns the target T1, Interleukin-1 receptor-associated kinase 4 (Homo sapiens, UniProt Q9NWZ3).
T1 sequence (Q9NWZ3 whole entry): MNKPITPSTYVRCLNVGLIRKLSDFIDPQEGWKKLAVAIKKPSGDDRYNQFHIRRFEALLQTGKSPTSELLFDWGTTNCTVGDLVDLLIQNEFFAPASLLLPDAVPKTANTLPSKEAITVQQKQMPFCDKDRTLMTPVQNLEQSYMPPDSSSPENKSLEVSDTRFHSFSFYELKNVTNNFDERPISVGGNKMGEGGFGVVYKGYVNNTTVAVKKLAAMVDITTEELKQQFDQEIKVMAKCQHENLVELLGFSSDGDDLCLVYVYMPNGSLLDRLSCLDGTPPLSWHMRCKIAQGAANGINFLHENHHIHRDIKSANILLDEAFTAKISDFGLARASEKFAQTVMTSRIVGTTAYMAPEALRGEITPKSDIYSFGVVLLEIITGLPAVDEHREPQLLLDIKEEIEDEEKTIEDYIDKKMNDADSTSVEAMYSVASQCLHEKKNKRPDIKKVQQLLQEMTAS
Kind of assay: Not found.
Description: Not found

Take `CC(C)(O)CCc1cn(-c2cnc(-c3cnn4cc(C#N)cnc34)cc2NC2COC2)nn1` [US10202390, Example 26]: 10 nM corresponded to half-maximal inhibition (IC50).
`CC(C)Nc1cc(-c2cnc3cc(Cl)cnn23)ncc1-c1cnn(C2CCOCC2)c1` [US10202390, Example 2] gave an IC50 of 63 nM.

For the origin of these results see BindingDB's records for patent US10202390 (Bristol-Myers Squibb Co., 2019).
